{"source": "paper PMC11785708", "about": "“Design and synthesis of new quinazolinone derivatives: investigation of antimicrobial and biofilm inhibition effects” (Molecular Diversity, 2024)", "origin": "cited, not measured here", "tested_on": "Candida albicans", "set-up": "method as in doi:10.1002/slct.201803795", "conditions": "read-out: anti-biofilm activity IC50; cited from earlier work", "note": "pIC50: −log10 of the molar value.", "data": [{"smiles": "COc1cc(OC)c(-c2nc3ccccc3c(=O)[nH]2)c(OC)c1", "note": "[V]", "values": [{"measurement": "pIC50", "value": "> 4.52"}]}]}
